Results from patent US20060035820A1, “New derivatives of echinocandine, their preparation process and their use as antifungals” (AVENTIS PHARMA S.A., priority 1999, published 2006).

Target: T1, Glucan Synthase of Candida albicans (Candida albicans, UniProt O13428)
T1 construct: endogenous in cells; host or cells: Candida albicans membrane preparation (method of Tang et al. 1991)
Assay: Inhibition of the Glucan Synthase of Candida albicans
Assay type: biochemical
Details: Candida albicans membranes, 14C-UDP glucose, 25° C. for 1 hour
Method: A—Inhibition of the Glucan Synthase of Candida albicans.
Candida albicans membranes were purified according to the process described by Tang et al Antimicrob. Agents Chemother 35, 99-103, 1991. 22.5 μg of membrane proteins are incubated in a mixture of 2 Mm of 14C-UDP glucose (specific activity=0.34 mCi./mmol, 50 μg of α-amylase, 1 Mm of dithiotreitol (DTT), 1 Mm EDTA, 100 Mm NaF, 7 μM of GTP-γ-S, 1M of sucrose and 50 Mm of Tris-HCL (pH 7.8) in a volume of 100 μl. The medium is incubated at 25° C. for 1 hour and the reaction is terminated by adding TCA at a final concentration of 5%. The reaction mixture is transferred onto a pre-humidified glass fibre filter. The filter is washed, dried and its radioactivity is counted. Mulundocandine is used as a positive control. Control of the vehicle is carried out with the same quantity of 1% DMSO.

T1 sequence (O13428 1-1897): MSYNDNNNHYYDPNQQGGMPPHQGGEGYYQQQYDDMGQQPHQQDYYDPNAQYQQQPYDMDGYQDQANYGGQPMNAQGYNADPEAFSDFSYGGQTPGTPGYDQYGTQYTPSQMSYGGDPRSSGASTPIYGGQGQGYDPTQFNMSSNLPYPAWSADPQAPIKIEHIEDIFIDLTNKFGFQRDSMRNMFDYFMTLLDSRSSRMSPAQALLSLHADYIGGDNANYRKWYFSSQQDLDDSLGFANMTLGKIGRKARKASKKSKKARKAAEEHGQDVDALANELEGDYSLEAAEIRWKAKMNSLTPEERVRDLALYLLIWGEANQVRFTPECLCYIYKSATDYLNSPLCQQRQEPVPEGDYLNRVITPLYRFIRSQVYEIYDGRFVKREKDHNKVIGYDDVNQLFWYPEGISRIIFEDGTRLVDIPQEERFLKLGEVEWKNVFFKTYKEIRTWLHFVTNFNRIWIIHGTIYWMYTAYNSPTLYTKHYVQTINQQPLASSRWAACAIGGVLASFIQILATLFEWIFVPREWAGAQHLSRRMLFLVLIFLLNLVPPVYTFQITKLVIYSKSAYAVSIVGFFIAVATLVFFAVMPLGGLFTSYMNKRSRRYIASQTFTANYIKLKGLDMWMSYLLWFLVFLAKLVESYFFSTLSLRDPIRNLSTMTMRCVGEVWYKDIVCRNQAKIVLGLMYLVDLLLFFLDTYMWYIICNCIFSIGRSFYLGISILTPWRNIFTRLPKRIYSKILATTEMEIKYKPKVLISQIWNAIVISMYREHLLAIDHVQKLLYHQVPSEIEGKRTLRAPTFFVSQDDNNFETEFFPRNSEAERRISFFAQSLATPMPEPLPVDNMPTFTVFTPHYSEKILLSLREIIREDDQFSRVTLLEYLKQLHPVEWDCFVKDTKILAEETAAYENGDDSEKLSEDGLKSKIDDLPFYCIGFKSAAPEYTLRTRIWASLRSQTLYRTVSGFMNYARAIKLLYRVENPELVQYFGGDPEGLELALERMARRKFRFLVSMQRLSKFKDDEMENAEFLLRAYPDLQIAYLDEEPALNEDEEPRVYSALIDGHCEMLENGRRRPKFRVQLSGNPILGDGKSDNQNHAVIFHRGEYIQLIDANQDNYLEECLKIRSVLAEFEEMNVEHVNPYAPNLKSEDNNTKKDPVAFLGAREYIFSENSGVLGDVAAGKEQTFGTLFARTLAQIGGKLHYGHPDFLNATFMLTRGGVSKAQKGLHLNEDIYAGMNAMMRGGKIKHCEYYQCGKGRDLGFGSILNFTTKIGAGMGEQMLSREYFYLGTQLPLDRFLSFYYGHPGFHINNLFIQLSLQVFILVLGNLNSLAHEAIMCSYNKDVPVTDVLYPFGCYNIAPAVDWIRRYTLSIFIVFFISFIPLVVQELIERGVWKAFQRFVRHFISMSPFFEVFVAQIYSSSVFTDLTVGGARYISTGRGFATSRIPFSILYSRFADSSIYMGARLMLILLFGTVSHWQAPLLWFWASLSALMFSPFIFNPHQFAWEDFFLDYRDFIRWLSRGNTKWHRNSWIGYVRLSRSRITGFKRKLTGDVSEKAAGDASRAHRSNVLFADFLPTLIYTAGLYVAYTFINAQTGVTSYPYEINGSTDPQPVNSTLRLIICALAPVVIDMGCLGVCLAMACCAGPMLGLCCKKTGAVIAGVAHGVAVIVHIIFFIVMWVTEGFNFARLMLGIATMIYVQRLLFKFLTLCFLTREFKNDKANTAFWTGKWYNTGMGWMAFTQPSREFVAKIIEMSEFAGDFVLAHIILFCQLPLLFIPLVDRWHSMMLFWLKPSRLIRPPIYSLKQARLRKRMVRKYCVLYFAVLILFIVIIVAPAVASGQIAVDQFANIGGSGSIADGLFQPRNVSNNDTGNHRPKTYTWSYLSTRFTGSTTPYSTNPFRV
T1 sequence (O42825 1-195 partner limits assumed): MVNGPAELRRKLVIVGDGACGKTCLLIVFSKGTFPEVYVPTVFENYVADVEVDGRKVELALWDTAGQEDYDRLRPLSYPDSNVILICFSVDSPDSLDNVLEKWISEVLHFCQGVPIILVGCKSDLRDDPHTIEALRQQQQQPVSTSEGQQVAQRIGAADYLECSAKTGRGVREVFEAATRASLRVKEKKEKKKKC

## Trans 1-[4-[(2-aminocyclo-hexyl)-amino]-N2-[[4″-(pentyloxy)[1,1′:4′,1″-terphenyl]-4-yl)]-carbonyl]-L-ornithine]-4-[4-(4-hydroxyphenyl)-L-threonine]-5-L-serine-echinocandin B trifluoroacetate (isomer A). [Example 3 isomer A]
  Inhibition of the glucan synthase of Candida albicans (activity in words): good activity
